This is an account of results in PMC9271048, “Probing strigolactone perception mechanisms with rationally designed small-molecule agonists stimulating germination of root parasitic weeds” (Nature Communications, 2022).

One assay addresses T1, AtD14-AtMAX2 interaction (Arabidopsis thaliana, UniProt Q9SQR3).
T1 construct: the CDS of ShHTL7 and AtD14 were cloned into yeast expression vector pBrigde; expressed in transfected cells; host or cells: yeast AH109
Kind of assay: Yeast two-hybrid assay AtD14-AtMAX2. Format: cell-based. The conditions noted are these: up to 200 μM. As to the method:
To construct plasmids for yeast two-hybrid assays, the CDS of ShHTL7 and AtD14 were cloned into yeast expression vector pBrigde to generate BD-ShHTL7 and BD-AtD14, and the CDS of ShMAX2, AtMAX2, SMAX1 were cloned into pGADT7 to make Gal4 DNA activation domain (AD) constructs, respectively. Primers used for yeast expression vector construction are listed in Supplementary Table 6. Yeast two-hybrid assays were performed using the Yeastmaker Yeast Transformation System 2 (Clontech). In brief, Yeast AH109 cells were co-transformed with specific bait and prey constructs and coated on selective growth medium SD/-Leu-Trp for 3 days at 30 °C, pick the positive constructs into liquid selective growth medium SD/-Leu-Trp shaking for 36 h at 30 °C. Washed yeast cells three times and diluted, made sure OD600 reached 2.5, then serial 10-fold dilutions of yeast cultures were spotted onto selective growth mediums that were supplemented with different concentrations of rac-GR24 and tested molecules, respectively. All yeast transformants were grown on a selective growth medium at 30 °C for 3 days.

Another assay addresses ShHTL7 (Striga hermonthica, UniProt A0A0M3PNA2). On the set-up: method as in PMID 30021834. The conditions noted are these: microscale thermophoresis measurements; cited from earlier work. In general terms: Microscale thermophoresis detects binding through changes in fluorescence in a small temperature gradient.
The test system of another assay is ShHTL7S95C. In words: Hydrolysis reaction analysis with ShHTL7 S95C mutant. Format: biochemical, Striga hermonthica. The conditions noted are these: Supplementary Fig. 24a. As to the method:
(§1) Compounds 4a, (R)- and (S)-4a, 4g-i, and rac-GR24 were dissolved in DMSO and prepared as stock solution ([…]) just before use. A 200 μL of the reaction solution consisting of PBS buffer (pH 7.3), 10 μM samples, and 10 μg recombinant ShHTL7 or its mutants was incubated at 30 °C for 30 min; with the reaction solution (200 μL) containing PBS buffer (pH 7.3) and 10 μM samples as the blank control[40],[52]. Subsequently, the reaction was terminated by adding 200 μL of methanol, and then the reaction mixture was shaken for 10 s and centrifuged at 5310 × g for 60 s. The supernatant was filtered and the remaining amount of samples was analyzed by HPLC. The relative percentages of hydrolysis were obtained by using the amount of compounds in blank control as reference.
Supplementary Fig. 24. a, Relative percentage of hydrolysis of compound 4g by ShHTL7S95A, ShHTL7S95C, and ShHTL7. b, LC-MS analysis of the full-length His-tagged ShHTL7 in native condition. c, LC-MS analysis of the full-length His-tagged ShHTL7S95A in native condition, the mass of 34699 Da (reduction of […] compared with that of ShHTL7) is the peak of ShHTL7S95A. d, LC-MS analysis of full-length His-tagged ShHTL7S95C in native condition, the mass increment of 18 Da […]

The target of another assay is ShHTL7 Y26F (Striga hermonthica, UniProt A0A0M3PNA2, Y26F). In words: YLG competitive inhibition, ShHTL7 mutant Y26F. Format: biochemical. The source says: (§2) To clarify the dynamics of how the catalytic triad affects hydrolysis by ShHTL7, we performed MD simulations to study the differences between (R)-4a and (S)-4a (Supplementary Fig. 21). […] To further characterize our computational models, we performed mutation studies of the key residues in the active pockets that may have interactions with our molecules. Indeed, a number of the mutations of specific residues altered the IC50 values, supporting our simulated models (Supplementary Fig. 20b).
Chain of ShHTL7 Y26F (A0A0M3PNA2 whole entry Y26F): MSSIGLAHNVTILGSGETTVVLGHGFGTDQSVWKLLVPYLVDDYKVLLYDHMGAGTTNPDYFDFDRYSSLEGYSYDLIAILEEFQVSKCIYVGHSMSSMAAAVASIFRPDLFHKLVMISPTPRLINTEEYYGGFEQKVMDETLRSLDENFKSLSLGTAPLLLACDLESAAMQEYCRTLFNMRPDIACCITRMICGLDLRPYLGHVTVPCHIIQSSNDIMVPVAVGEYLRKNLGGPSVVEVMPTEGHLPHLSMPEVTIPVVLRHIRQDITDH
(§3) The excitation and emission wavelengths of YLG are 480 and 520 nm, respectively. We used a fluorescence spectrophotometer (CARY Eclipse) to detect the fluorescence intensity change of YLG during the enzymatic hydrolysis assay process. All the testing compounds and YLG were dissolved in DMSO and prepared as stock solutions just before use. […] The changes of fluorescence at 520 nm of each well were recorded every 1 min for 30 min. Using the reaction mixture without adding enzyme and tested compounds as the background control. After subtracting the background hydrolysis, a linear fluorescence increase in 8 min was used for further inspection. The IC50 values were determined via fitting relative inhibition percentages with the varying concentrations of compounds in Microsoft Excel.
(§4) Supplementary Fig. 20. […]

Another assay has as its target ShHTL7 T157Y (Striga hermonthica, UniProt A0A0M3PNA2, T157Y). In words: YLG competitive inhibition, ShHTL7 mutant T157Y. It counts as biochemical.
Source text: as §2, §3, §4

For the next assay, the system named is ShHTL7H246A. In words: Hydrolysis reaction analysis with ShHTL7 H246A mutant. Particulars: Supplementary Fig. 20a. Format: biochemical, Striga hermonthica. As to the method:
as §1
Supplementary Fig. 20. Effect of key amino acid residues on the hydrolysis of ShHTL7 and binding affinity. a, Relative percentage of hydrolysis of compound (S)-4a by ShHTL7S95A, ShHTL7H246A, and ShHTL7. The error bar indicates SD (n = 3 biologically independent experiments). b, Competitive mutants of ShHTL7 inhibitory activity in YLG assay. Data are the means ± SD (n = 3 biologically independent experiments).
(1 picture or pasted object on this page, not shown here)

Chain of ShHTL7 T157Y (A0A0M3PNA2 whole entry T157Y): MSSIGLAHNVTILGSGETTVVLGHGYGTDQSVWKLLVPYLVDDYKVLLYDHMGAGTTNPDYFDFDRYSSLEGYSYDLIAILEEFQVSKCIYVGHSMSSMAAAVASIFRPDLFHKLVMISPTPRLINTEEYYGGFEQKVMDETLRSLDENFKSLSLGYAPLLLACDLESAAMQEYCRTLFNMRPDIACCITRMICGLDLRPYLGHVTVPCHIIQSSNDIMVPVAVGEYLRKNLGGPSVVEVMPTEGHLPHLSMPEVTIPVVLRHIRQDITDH
Chain of ShHTL7 (A0A0M3PNA2 entry or part of it): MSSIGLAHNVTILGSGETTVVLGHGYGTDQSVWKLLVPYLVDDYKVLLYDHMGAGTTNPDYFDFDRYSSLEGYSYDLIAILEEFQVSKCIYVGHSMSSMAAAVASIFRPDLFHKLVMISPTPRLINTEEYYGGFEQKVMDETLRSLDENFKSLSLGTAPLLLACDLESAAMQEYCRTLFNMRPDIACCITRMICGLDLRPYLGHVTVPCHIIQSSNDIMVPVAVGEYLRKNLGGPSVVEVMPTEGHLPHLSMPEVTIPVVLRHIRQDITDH
T1 sequence (Q9SQR3 whole entry): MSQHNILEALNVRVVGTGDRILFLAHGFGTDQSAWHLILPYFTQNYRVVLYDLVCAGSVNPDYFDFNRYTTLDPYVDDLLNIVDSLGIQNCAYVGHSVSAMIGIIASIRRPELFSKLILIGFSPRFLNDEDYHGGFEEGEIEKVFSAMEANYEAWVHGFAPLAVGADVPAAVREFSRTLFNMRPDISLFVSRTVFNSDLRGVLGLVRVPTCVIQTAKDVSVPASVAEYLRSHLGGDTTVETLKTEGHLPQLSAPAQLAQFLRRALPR

Regarding `CC1=CC(OC(=O)N2CCN(C(=O)COc3ccc(Br)cc3C)CC2)OC1=O` (centres unmarked) [4a], the “induction of AtD14-AtMAX2 interaction (Y2H)” value on AtD14-AtMAX2 interaction is on record as “did not promote the interaction”.
In the case of `CC1=C[C@H](O/C=C2/C(=O)O[C@@H]3c4ccccc4C[C@H]23)OC1=O` (racemic) [rac-GR24, reference compound], on ShHTL7, the Kd is 0.92 ± 0.01 µM.
Turning to `CC1=CC(OC(=O)N2CCN(C(=O)COc3ccc(Br)cc3C)CC2)CC1=O` (centres unmarked) [4g], the “relative percentage of hydrolysis by ShHTL7S95C, source data average” value in the assay on ShHTL7S95C is recorded as 4.848%.
Take `CC1=C[C@H](OC(=O)N2CCN(C(=O)COc3ccc(Br)cc3C)CC2)OC1=O` [(S)-4a]: the IC50 at ShHTL7 Y26F stood at 0.233 µM; on ShHTL7 T157Y it was 0.949 µM. In addition, in the assay with ShHTL7H246A, the “relative percentage of hydrolysis by ShHTL7H246A, source data average” value is listed as 0.5315%.
As for `CC1=C[C@@H](OC(=O)N2CCN(C(=O)COc3ccc(Br)cc3C)CC2)OC1=O` [(R)-4a], the IC50 at ShHTL7 Y26F was 29.9 µM; on ShHTL7 T157Y it was 23.3 µM.

Broadly, the Kd is the free concentration of one partner at which half of the binding sites on the other are occupied at equilibrium, for simple one-to-one binding. Broadly, the IC50 is the point on the concentration scale where inhibition reaches its midpoint. A higher IC50 goes with lower potency.
